Results on 7 cell lines are retold here after the supplement of paper PMC10307832.

Assay in all cases: relative viability (nuclei count vs DMSO), 5 days (fraction); higher = more cells survive
Compound in assay [1]: C1CN(CCC1C(C2=CC3=C(C=C2)OCO3)(C4=CC5=C(C=C4)OCO5)O)C(=O)OC6=CC=C(C=C6)[N+](=O)[O-] [JZL-184] + COc1cc2c(Oc3ccc(NC(=O)C4(C(=O)Nc5ccc(F)cc5)CC4)cc3F)ccnc2cc1OCCCN1CCOCC1 [Foretinib] (partner 0.25 µM)
In outline:
(§1)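 Lung cancer cell lines were pin-tool dosed in 1536-well plates on the day after seeding, with either a lone drug or a fixed anchor-drug dose plus five library-drug doses (not always all listed) in √10 steps. Nuclei were counted on 4× images after 5 days. Relative viability is the ratio of treated-well to vehicle-well nuclei counts, with each value a median of duplicate plates.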

Compound in assay [2]: C1CN(CCC1C(C2=CC3=C(C=C2)OCO3)(C4=CC5=C(C=C4)OCO5)O)C(=O)OC6=CC=C(C=C6)[N+](=O)[O-] [JZL-184] + Cc1nc(Nc2ncc(C(=O)Nc3c(C)cccc3Cl)s2)cc(N2CCN(CCO)CC2)n1 [Dasatinib] (partner 0.075 µM)
The method, boiled down: as §1

Compound in assay [3]: C1CN(CCC1C(C2=CC3=C(C=C2)OCO3)(C4=CC5=C(C=C4)OCO5)O)C(=O)OC6=CC=C(C=C6)[N+](=O)[O-] [JZL-184] + Nc1ncn([C@H]2C[C@H](O)[C@@H](CO)O2)c(=O)n1 [Decitabine] (partner 2 µM)
In outline:
as §1

Compound in assay [4]: C1CN(CCC1C(C2=CC3=C(C=C2)OCO3)(C4=CC5=C(C=C4)OCO5)O)C(=O)OC6=CC=C(C=C6)[N+](=O)[O-] [JZL-184] + CC1(C)CCC(c2ccc(Cl)cc2)=C(CN2CCN(c3ccc(C(=O)NS(=O)(=O)c4ccc(N[C@H](CCN5CCOCC5)CSc5ccccc5)c(S(=O)(=O)C(F)(F)F)c4)cc3)CC2)C1 [Navitoclax] (partner 0.5 µM)
The method, boiled down:
as §1

Compound in assay [5]: C1CN(CCC1C(C2=CC3=C(C=C2)OCO3)(C4=CC5=C(C=C4)OCO5)O)C(=O)OC6=CC=C(C=C6)[N+](=O)[O-] [JZL-184] + O=C(c1cc(Cc2n[nH]c(=O)c3ccccc23)ccc1F)N1CCN(C(=O)C2CC2)CC1 [Olaparib] (partner 8 µM)
In outline:
as §1

As for NCI-H838, the relative viability stood at 1.04 in assay [1] (first compound 0.04 µM); 1.04 in assay [1] (first compound 0.4 µM); 1.14 in assay [1] (first compound 1.265 µM); 0.901 in assay [1] (first compound 4 µM); 0.286 in assay [2] (first compound 0.04 µM); 0.307 in assay [2] (first compound 0.4 µM). Further, the relative viability was 0.289 in assay [2] (first compound 1.265 µM); 0.3 in assay [2] (first compound 4 µM); 0.551 in assay [3] (first compound 0.04 µM); 0.475 in assay [3] (first compound 0.4 µM); 0.465 in assay [3] (first compound 1.265 µM); 0.467 in assay [3] (first compound 4 µM). Also, the relative viability worked out at 1.39 in assay [4] (first compound 0.04 µM); 1.22 in assay [4] (first compound 0.4 µM); 1.21 in assay [4] (first compound 1.265 µM); 1.11 in assay [4] (first compound 4 µM); 0.994 in assay [5] (first compound 0.04 µM); 0.737 in assay [5] (first compound 0.4 µM). Besides, the values for the relative viability in assay [5] (first compound 1.265 µM) and in assay [5] (first compound 4 µM) were 0.766 and 0.722, respectively.

Take NCI-H3122: the relative viability came out at 1.03 in assay [1] (first compound 0.04 µM); 0.954 in assay [1] (first compound 0.4 µM); 0.944 in assay [1] (first compound 1.265 µM); 0.983 in assay [1] (first compound 4 µM); 0.918 in assay [2] (first compound 0.04 µM); 0.718 in assay [2] (first compound 0.4 µM). Besides, the relative viability in assay [2] (first compound 1.265 µM) is 0.872; in assay [2] (first compound 4 µM), 0.778; in assay [3] (first compound 0.04 µM), 0.411; in assay [3] (first compound 0.4 µM) it was 0.458; in assay [3] (first compound 1.265 µM) it was 0.375; in assay [3] (first compound 4 µM), 0.433. The relative viability was 1.03 in assay [4] (first compound 0.04 µM); 0.98 in assay [4] (first compound 0.4 µM); 0.968 in assay [4] (first compound 1.265 µM); 1.01 in assay [4] (first compound 4 µM); 0.571 in assay [5] (first compound 0.04 µM); 0.55 in assay [5] (first compound 0.4 µM). The relative viability in assay [5] (first compound 1.265 µM) was 0.667; in assay [5] (first compound 4 µM), 0.598.

In the case of SK-MES-1, the relative viability in assay [1] (first compound 0.04 µM) turned out to be 1.01; in assay [1] (first compound 0.4 µM), 1.02; in assay [1] (first compound 1.265 µM), 1.02; in assay [1] (first compound 4 µM), 0.86; in assay [2] (first compound 0.04 µM), 0.332; in assay [2] (first compound 0.4 µM) it was 0.486. For the same cell line, the relative viability in assay [2] (first compound 1.265 µM) amounted to 0.359; in assay [2] (first compound 4 µM), 0.445; in assay [3] (first compound 0.04 µM), 0.448; in assay [3] (first compound 0.4 µM) it was 0.381; in assay [3] (first compound 1.265 µM), 0.405; in assay [3] (first compound 4 µM), 0.403. The relative viability in assay [4] (first compound 0.04 µM) turned out to be 1.35; in assay [4] (first compound 0.4 µM), 1.14; in assay [4] (first compound 1.265 µM), 1.12; in assay [4] (first compound 4 µM) it was 1.17; in assay [5] (first compound 0.04 µM) it was 0.792; in assay [5] (first compound 0.4 µM) it was 0.698. The relative viability in assay [5] (first compound 1.265 µM) is 0.765; in assay [5] (first compound 4 µM) it was 0.662.

For NCI-H1944, the relative viability in assay [1] (first compound 0.04 µM) stood at 0.893; in assay [1] (first compound 0.4 µM), 0.906; in assay [1] (first compound 1.265 µM) it was 0.938; in assay [1] (first compound 4 µM), 0.886; in assay [2] (first compound 0.04 µM), 0.256; in assay [2] (first compound 0.4 µM), 0.208. Also, the relative viability is 0.221 in assay [2] (first compound 1.265 µM); 0.213 in assay [2] (first compound 4 µM); 0.451 in assay [3] (first compound 0.04 µM); 0.416 in assay [3] (first compound 0.4 µM); 0.407 in assay [3] (first compound 1.265 µM); 0.391 in assay [3] (first compound 4 µM). The relative viability was determined as 0.948 in assay [4] (first compound 0.04 µM); 1.08 in assay [4] (first compound 0.4 µM); 1.08 in assay [4] (first compound 1.265 µM); 1.02 in assay [4] (first compound 4 µM); 0.402 in assay [5] (first compound 0.04 µM); 0.351 in assay [5] (first compound 0.4 µM). In addition, the relative viability in assay [5] (first compound 1.265 µM) is 0.401; in assay [5] (first compound 4 µM) it was 0.444.

Turning to LK-2, the relative viability came to 1.27 in assay [1] (first compound 0.04 µM); 1.11 in assay [1] (first compound 0.4 µM); 1.31 in assay [1] (first compound 1.265 µM); 1.5 in assay [1] (first compound 4 µM); 0.379 in assay [2] (first compound 0.04 µM); 0.364 in assay [2] (first compound 0.4 µM). The relative viability stood at 0.295 in assay [2] (first compound 1.265 µM); 0.325 in assay [2] (first compound 4 µM); 0.254 in assay [3] (first compound 0.04 µM); 0.198 in assay [3] (first compound 0.4 µM); 0.273 in assay [3] (first compound 1.265 µM); 0.304 in assay [3] (first compound 4 µM). Further, the relative viability was found to be 0.941 in assay [4] (first compound 0.04 µM); 0.821 in assay [4] (first compound 0.4 µM); 1.06 in assay [4] (first compound 1.265 µM); 0.77 in assay [4] (first compound 4 µM); 0.777 in assay [5] (first compound 0.04 µM); 0.661 in assay [5] (first compound 0.4 µM). The relative viability in assay [5] (first compound 1.265 µM) came to 0.939; in assay [5] (first compound 4 µM), 0.835.

With PC-3 [JPC-3], the relative viability came out at 1.08 in assay [1] (first compound 0.04 µM); 0.975 in assay [1] (first compound 0.4 µM); 1.09 in assay [1] (first compound 1.265 µM); 0.913 in assay [1] (first compound 4 µM); 1.01 in assay [2] (first compound 0.04 µM); 0.905 in assay [2] (first compound 0.4 µM). Further, the relative viability in assay [2] (first compound 1.265 µM) stood at 0.976; in assay [2] (first compound 4 µM), 0.945; in assay [3] (first compound 0.04 µM), 1.02; in assay [3] (first compound 0.4 µM) it was 0.825; in assay [3] (first compound 1.265 µM), 0.874; in assay [3] (first compound 4 µM), 0.822. For the same cell line, the relative viability turned out to be 0.794 in assay [4] (first compound 0.04 µM); 0.838 in assay [4] (first compound 0.4 µM); 0.791 in assay [4] (first compound 1.265 µM); 0.77 in assay [4] (first compound 4 µM); 1.14 in assay [5] (first compound 0.04 µM); 1.04 in assay [5] (first compound 0.4 µM). For the same cell line, the relative viability in assay [5] (first compound 1.265 µM) is 1.21; in assay [5] (first compound 4 µM) it was 1.15.

Regarding COR-L23, the relative viability in assay [1] (first compound 0.04 µM) turned out to be 0.978; in assay [1] (first compound 0.4 µM), 0.881; in assay [1] (first compound 1.265 µM) it was 1.01; in assay [1] (first compound 4 µM) it was 0.902; in assay [2] (first compound 0.04 µM) it was 0.596; in assay [2] (first compound 0.4 µM), 0.425. Also, the relative viability amounted to 0.514 in assay [2] (first compound 1.265 µM); 0.407 in assay [2] (first compound 4 µM); 0.474 in assay [3] (first compound 0.04 µM); 0.414 in assay [3] (first compound 0.4 µM); 0.412 in assay [3] (first compound 1.265 µM); 0.397 in assay [3] (first compound 4 µM). Besides, the relative viability came out at 1.13 in assay [4] (first compound 0.04 µM); 0.87 in assay [4] (first compound 0.4 µM); 1.05 in assay [4] (first compound 1.265 µM); 0.968 in assay [4] (first compound 4 µM); 0.379 in assay [5] (first compound 0.04 µM); 0.365 in assay [5] (first compound 0.4 µM). The relative viability in assay [5] (first compound 1.265 µM) amounted to 0.315; in assay [5] (first compound 4 µM), 0.4.
